Test results from patent USRE47475E1, “Selective agents for pain suppression” (WiSys Technology Foundation, Inc., priority 2002, dated 2019).

How the values were obtained:
[1] = mice and rats after intraperitoneal (i.p.) application; Rivas et al., 2009; cited from earlier work
rhesus monkeys = assay: conflict model of anxiolytic activity which also measures sedation; format: in vivo
Experimental: The data in FIGS. 21A-21F reflect the ability of the compounds or drugs to exert an anxioyic effect in rhesus monkeys (J. Rowlett, J. M. Cook et al., unpublished results) when given intravenously in propylene glycol/water solution. This is the conflict model of anxiolytic activity which also measures sedation. […] In FIG. 21B, SH-053-2′F (JY-XHE-053) is anxiolytic at a dose of greater than 0.13 mg/kg, but exerts only some slight sedation at doses greater than 1.2 mg/kg (responses decrease). In FIG. 21C it is clear the S-enantiomer of SH-053-2′F—S—CH3 is anxiolytic with no sedation up to 10-18 mg/kg, which is the highest dose tested.

[2] = tested on: thermal hyperalgesia after CCI of the sciatic nerve; assay: chronic constriction injury (CCI) model, heat hyperalgesia (plantar test); format: in vivo, mice; settings: 16 mg/kg i.p.
Experimental: In addition, the pro- or antinociceptive effects of the compounds of the present invention are analyzed in the chronic constriction injury (CCI) model. The GABAA receptor subunit selective test compounds of the present invention are analysed in the CCI model in 7-8-week-old C57BL/6 mice. See Bennett, G. J. & Xie, Y. K. A peripheral mononeuropathy in rat that produces disorders of pain sensation like those seen in man. […] Seven to eight week old mice are anesthetized with isofluran. Unilateral constriction injury of the left sciatic nerve just proximal to the trifurcation is performed with three loose ligatures. […] Heat hyperalgesia, cold allodynia and mechanical sensitization are assessed 7-9 days after surgery. Mechanical sensitivity is assessed with electronic von Frey filaments (IITC).
Heat hyperalgesia is assessed by measuring paw withdrawal latencies on exposure to a defined radiant heat stimulus are measured with a commercially available apparatus (Plantar Test; Ugo Basile). […]
Pain studies—Neuropathic pain: HZ166 and gabapentin were analyzed in the chronic constriction injury (CCI) model. […] Heat hyperalgesia and mechanical sensitization were assessed 7-16 days after surgery.
Pain Studies—Heat hyperalgesia: Paw withdrawal latencies upon exposure to a defined radiant heat stimulus were measured using a commercially available apparatus (Plantar Test, Ugo Basile, Comerio, Italy). […]

[3] = tested on: Formalin Pain (mouse, i.p.); assay: T22 formalin test (chemically induced pain); format: in vivo
Experimental: This elicits a distinct bi-phasic behavioral profile in response to the formalin injection characterized by licking of the affected paw, and the number of licks is measured as a proxy for perceived pain. The first (acute) phase is thought to correspond to the direct stimulation of peripheral fibers while the second (inflammatory) phase is caused by the release of inflammatory mediators from the damaged tissue and nerve endings. Thus, this model is ideally suited for efficacy of an investigational AED against the acute and chronic hyper-responsive neuronal discharges following activation of peripheral nerve fibers.
The results of the formalin test are given both as raw data (“Response”) and in an aggregate, analyzed form (“Analysis”). In the Response section, each Trial involves sixteen animals, eight controls given an i.p. injection of vehicle and eight given the compound at a specified dose. Thus, for multiple doses of the compound, there will also be multiple control groups. The data recorded for each animal is the amount of time(s) spent licking the affected hind paw in a two minute period. These two minute periods occur at five minute intervals and continue for 45 minutes. […] From this plot, we can then determine the area under the curve (AUC) for each animal during both the acute and inflammatory stages. The AUC for each phase is shown in the analysis section of the data sheet for both control and drug-treated animals The AUC for each drug-treated animal is compared to the average result from the control group, yielding an average percent of control (reported with the SEM and p value).

[4] = tested on: inflammatory hyperalgesia induced by zymosan A; assay: zymosan A model of inflammatory pain, mechanical sensitization; format: in vivo, mice; settings: 16 mg/kg i.p., 48 hours after zymosan A; n=6
Experimental: Inflammatory pain is assessed in the zymosan A model. See Hargreaves, K., Dubner, R., Brown, F., Flores, C. & Joris, J. A new and sensitive method for measuring thermal nociception in cutaneous hyperalgesia. Pain 32, 77-88 (1988). Inflammatory pain is induced by subcutaneous injection of zymosan A (0.06 mg in mice; 1 mg in rats) into one hindpaw. In mice, 0.06 mg of zymosan A suspended in […] of 0.9% NaCl is injected subcutaneously into the plantar side of the left hindpaw. The model is also used in rats, but 1 mg of zymosan A is used. Heat hyperalgesia is assessed 24 h and 6 h after induction of inflammation in mice and rats, respectively.
Pain Studies—Inflammatory pain: Inflammatory pain was studied in the zymosan A model (Meller and Gebhart, 1997). 0.06 mg zymosan A (Sigma Chemicals) suspended in 20 μl 0.9% NaCl was injected subcutaneously into the plantar side of the left hindpaw. Mechanical sensitization was assessed 48 hours after induction of inflammation.
Pain Studies—Mechanical sensitization: Mechanical sensitivity was assessed with dynamic von Frey filaments (IITC, Woodland Hills, Calif.). […]
Statistical Analysis: For all different doses and vehicle, baseline paw withdrawal thresholds/latencies on day 7 after nerve ligation or on day 2 after zymosan A injection were subtracted from all later withdrawal thresholds and the area under the curve (AUC) was calculated. […]

Cyp = Cyp profile

## C#Cc1ccc2c(c1)C(c1ccccn1)=NCc1c(C(=O)OCC)ncn1-2 [HZ-166, 8-Acetylenyl-6-pyridin-2-yl-4H-benzo[f]imidazo[1,5-a][1,4]diazepine-3-carboxylic acid ethyl ester]
[1]
  pharmacokinetics: suitable
Rhesus monkeys; conflict model
  no sedation up to dose: up to 10 mg/kg
Rhesus monkeys; intravenously
  sedative activity (conflict model): no sedative activity
Rhesus monkeys; intravenously in propylene glycol/water
  anxiolytic effect (conflict model): anxiolytic
[2]
  time of peak effect on PWLs after administration: 1 h
[2]; 7 days after surgery, n=6
  AUC of PWL, injured paw: 4.33±1.95 s*h
[3]; formalin test, acute phase
  protection at the acute phase of chemically induced pain: significant protection
[3]; mouse, i.p., acute phase, dose 16 (HZ-166), 10 (JY-XHE-053), 1 (XLI-JY-DMH) mg/kg
  Change (% of Control) ± SEM, T22 Formalin Pain, Acute: 66.8 % of Control
[3]; mouse, i.p., inflammatory phase, dose 16 (HZ-166), 10 (JY-XHE-053), 1 (XLI-JY-DMH) mg/kg
  Change (% of Control) ± SEM, T22 Formalin Pain, inflammatory: 63 % of Control
[4]
  AUC of mechanical PWT: 1.55 ± 0.21 g·h
Cyp
  Cyp profile: good
